Measured values taken from US20240016153A1, “WHEAT SEED PRODUCTION” (PIONEER HI-BRED INTERNATIONAL, INC., priority 2022, published 2024).

Tests used:
[1] = test system: Hard Red Winter (HRW) wheat varieties or wheat inbred lines; assay: field and greenhouse experiments: effect of GA3 on plant height, heading, flowering and yield in GA sensitive and insensitive wheat genotypes; type: in vivo
Experimental: A series of field and greenhouse experiments were conducted to understand the effect of GA3 on plant height, pollen dispersal and seed set in GA sensitive and insensitive wheat genotypes. Eight proprietary Hard Red Winter (HRW) wheat varieties or wheat inbred lines were used in this project at two locations. The plants were genotyped for the Rht1, Rht2, and Rht24 mutant alleles to determine which plants were GA3 sensitive or insensitive genotypes.
Commercially available GA3 was applied using a broadcast application to the wheat plants at various vegetative growth stages described by the Feekes Scale. GA3 was applied at different rates of active ingredient (ai)/acre to elucidate the growth response. Experimental treatments were: Untreated, 1 oz ai/acre applied at Feekes stage 6, 1 oz ai/acre applied sequentially at Feekes stage 6 and Feekes stage 8 (2 oz ai/acre total), and 1 oz ai/acre applied sequentially at Feekes stage 6, Feekes stage 8, and Feekes stage 10 (3 oz ai/acre total)

winter wheat genotypes = assay: production studies: sodium chlorate desiccant sprayed to delay male flowering; type: in vivo
Experimental: A series of production studies were conducted to understand how to delay male flowering in wheat seed production. Several winter wheat genotypes were planted in a split plot design and sprayed with a commercially available sodium chlorate desiccant at the highest labeled rate at Feekes stages 7 and 9. In most crops, desiccants are typically used to artificially accelerate the drying down of plant tissues. Here, the strategy was to slow growth rates in the male wheat plants to delay heading and subsequent flowering. […] The desiccant caused a slight 0 to 2 inch (0 to 5 cm) reduction in plant height.

Row | Compound | change in heading and flowering ([1]; GA insensitive genotypes) | effect on wheat plant height ([1]; GA sensitive genotypes vs same genotype not treated) | wheat yield vs untreated plants ([1]; GA sensitive genotypes, same GA3 treatment) | decrease of yield ([1]; GA sensitive male genotypes) [%] | differences in plant height with GA3 treatments ([1]; plants with Rht1+Rht24 or Rht2+Rht24 mutant alleles (GA3 insensitive genotype combinations)) | inbred male yield (winter wheat genotypes; sprayed at Feekes stage 7 or 9 (both stages), FIG. 4) | inbred male yield, comparison of stages (winter wheat genotypes; sprayed at Feekes stage 9, FIG. 4)
1 | C=C1C[C@]23C[C@@]1(O)CC[C@H]2[C@@]12C=C[C@H](O)[C@@](C)(C(=O)O1)[C@H]2[C@@H]3C(=O)O [GA3, gibberellin A3] | did not change | positive effect | lower wheat yield | 11 | did not show differences in plant height | – | –
2 | [Na+].[O-][Cl+2]([O-])[O-] [sodium chlorate] | – | – | – | – | – | reduced | greatest reduction
